What all share (type): functional
For experiment [1], the species on record is Homo sapiens. In words: In vitro effect on lipoxygenase activity in intact human polymorphonuclear leukocytes at a concentration of 10 e-4 M on formation of 5-HETE.
Experiment [2] is filed under the species Homo sapiens. In words: In vitro effect on lipoxygenase activity in intact human polymorphonuclear leukocytes at a concentration of 10 e-4 M on formation of Leukotriene B4 (LTB4).
Experiment [3] is filed under the species Homo sapiens. In words: In vitro effect on lipoxygenase activity in intact human polymorphonuclear leukocytes at a concen of 10 e-4 M on formation of 5-HETE.

SMILES strings stand for the structures.

As to `CCCCC/C=C\C/C=C\C/C=C\C(C)(C)/C=C\CCCC(=O)O`, the Effect in experiment [1] amounted to 29%; in experiment [2] it was 19%.

In the case of `CCCCC/C=C\C/C=C\C/C=C\Cc1ccccc1CCCC(=O)O`, the Effect is -94% in experiment [3] and -91% in experiment [2].

Consider `CCCCC/C=C\C/C=C\C(C)(C)/C=C\C/C=C\CCCC(=O)O`, for which the Effect in experiment [3] is on record as 60%; in experiment [2], 40%.
